In ChEMBL document CHEMBL4706608, “Design and synthesis of 3-(4-pyridyl)-5-(4-sulfamido-phenyl)-1,2,4-oxadiazole derivatives as novel GSK-3β inhibitors and evaluation of their potential as multifunctional anti-Alzheimer agents” (Eur J Med Chem, 2021):
Active and inactive are the calls of the source. The rule behind the calls is not given here.

Columns and labels:
[1] = Efflux ratio of apparent permeability across basolateral to apical membrane to apical to basolateral membrane in MDCK2-MDR1 measured upto 120 mins; type: ADME, tissue-based, Canis lupus familiaris, MDCK-II; settings: dog
[2] = system: HepG2; experiment: Increase in glucose consumption in human HepG2 cells at 20 uM after 24 hrs by glucose oxidase assay (reference value: 1.36 mM); type: functional
[3] = system: HepG2; experiment: Cytotoxicity against human HepG2 cells assessed as cell viability at 10 to 50 uM after 24 hrs by MTT assay; type: cell-based; settings: hepg2, 24 h, dose 10-50 µM
[4] = Cytotoxicity against human L-02 cells assessed as decreased cell viability at 50 uM after 24 hrs by MTT assay relative to control; type: cell-based, L02; settings: read-out: INH
[5] = system: BV-2; experiment: Antiinflammatory activity in LPS-stimulated mouse BV-2 cells assessed as decrease in iNOS level at 1 to 10 uM preincubated for 1 hr followed by LPS addition measured after 24 hrs by Western blot analysis; type: functional, cell-based; settings: dose 1-10 µM, time 25.0 hrs
[6] = biological target: T1, Glycogen synthase kinase-3 beta (Homo sapiens, UniProt P49841); experiment: Inhibition of GSK3beta (unknown origin) measured after 40 mins by ADP-Glo assay
Target sequence in this assay (P49841 whole entry): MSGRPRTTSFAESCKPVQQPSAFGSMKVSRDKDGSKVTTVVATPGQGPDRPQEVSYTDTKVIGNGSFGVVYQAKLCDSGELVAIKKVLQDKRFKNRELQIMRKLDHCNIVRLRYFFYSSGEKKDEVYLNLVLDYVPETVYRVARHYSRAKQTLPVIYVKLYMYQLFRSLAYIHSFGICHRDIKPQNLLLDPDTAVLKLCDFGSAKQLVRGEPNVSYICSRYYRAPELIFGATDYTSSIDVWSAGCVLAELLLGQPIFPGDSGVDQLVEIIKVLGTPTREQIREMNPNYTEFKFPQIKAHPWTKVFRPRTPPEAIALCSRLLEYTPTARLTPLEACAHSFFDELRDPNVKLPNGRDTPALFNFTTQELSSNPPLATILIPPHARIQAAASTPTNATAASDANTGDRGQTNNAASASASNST

[7] = system: PC-12; experiment: Neuroprotective activity against H2O2-induced cytotoxicity in rat PC12 cells assessed as increase in cell viability at 30 uM preincubated for 3 hrs followed by H2O2 addition and measured after 24 hrs by MTT assay (reference value: 24.8 to 41.7%); type: functional
[8] = Apparent permeability from apical to basolateral side in MDCK2-MDR1 measured upto 120 mins; type: ADME, Canis lupus familiaris; settings: dog, mdck-ii, 2 h
[9] = system: BV-2; experiment: Antiinflammatory activity in LPS-stimulated mouse BV-2 cells assessed as decrease in IL-1beta level at 1 to 10 uM preincubated for 1 hr followed by LPS addition measured after 24 hrs by ELISA; type: functional, cell-based; settings: dose 1-10 µM, time 25.0 hrs
[10] = system: BV-2; experiment: Antiinflammatory activity in LPS-stimulated mouse BV-2 cells assessed as decrease in TNF-alpha level at 1 to 10 uM preincubated for 1 hr followed by LPS addition measured after 24 hrs by ELISA; type: functional, cell-based; settings: dose 1-10 µM, time 25.0 hrs
[11] = system: BV-2; experiment: Antiinflammatory activity in LPS-stimulated mouse BV-2 cells assessed as decrease in cox-2 level at 1 to 10 uM preincubated for 1 hr followed by LPS addition measured after 24 hrs by Western blot analysis; type: functional, cell-based; settings: dose 1-10 µM, time 25.0 hrs
[12] = Cytotoxicity against rat PC-12 cells assessed as cell viability at 50 uM by MTT assay relative to control; type: cell-based; settings: read-out: Activity
[13] = system: PC-12; experiment: Inhibition of H2O2-induced intracellular ROS production in rat PC-12 cells pretreated for 6 hrs followed by H2O2 addition measured after 18 hrs by DCFH-DA assay; type: functional, cell-based; settings: dose 1-50 µM, time 24.0 hrs
[14] = system: SH-SY5Y; experiment: Inhibition of H2O2-induced intracellular ROS production in human SH-SY5Y cells pretreated for 6 hrs followed by H2O2 addition measured after 18 hrs by DCFH-DA assay; type: functional, cell-based; settings: dose 1-50 µM, time 24.0 hrs
[15] = system: PC-12; experiment: Neuroprotective activity against H2O2-induced cytotoxicity in rat PC12 cells assessed as increase in cell viability at 10 uM preincubated for 3 hrs followed by H2O2 addition and measured after 24 hrs by MTT assay (reference value: 24.8 to 41.7%); type: functional
[16] = Apparent permeability from basolateral to apical side in MDCK2-MDR1 measured upto 120 mins; type: ADME, Canis lupus familiaris, MDCK-II; settings: dog
[17] = Antioxidant activity assessed as DPPH radical scavenging activity after 2 hrs by microplate method; type: functional; settings: dose 1-1000 µM
[18] = biological target: T1, Glycogen synthase kinase-3 beta; experiment: Inhibition of GSK-3beta in human SH-SY5Y cells assessed as decrease in amyloid beta-induced Tau hyperphosphorylation at Ser396 pretreated for 1 hr followed Amyloid beta addition measured after 6 hrs by Western blot analysis; type: cell-based; settings: dose 5-15 µM, time 7.0 hrs
Target sequence in this assay (P49841 whole entry, looked up): as the sequence (P49841 whole entry) above

[19] = system: BV-2; experiment: Anti-neuroinflammation in mouse BV2 cells assessed as inhibition of LPS-induced NO production preincubated for 1 hr followed by LPS addition measured after 24 hrs by Griess reagent based assay; type: functional, cell-based
[20] = Cytotoxicity against rat PC-12 cells assessed as cell viability at 30 uM by MTT assay relative to control; type: cell-based; settings: read-out: Activity
[21] = system: HepG2; experiment: Increase in glucose consumption in human HepG2 cells at 20 uM after 24 hrs by glucose oxidase assay; type: functional, cell-based
[22] = system: Mus musculus; experiment: Cognitive enhancing effect in C57BL mouse model of scopolamine-induced memory impairment assessed as number of virtual platform crossing at 10 to 30 mg/kg, po administered for 7 days and measured after 30 mins at 5th day of training session by Morris water maze test; type: functional, organism-based; settings: dose 10-30 mg/kg, time 7.0 day
[23] = system: L02; experiment: Cytotoxicity against human L-02 cells assessed as decreased cell viability at 50 uM after 24 hrs by MTT assay; type: cell-based; settings: l02, 24 h
[24] = Effect on body weight in C57BL mouse model of scopolamine-induced memory impairment model at 10 to 30 mg/kg, po administered for 7 days; type: ADME, organism-based; settings: in vivo, 168 h, dose 10-30 mg/kg, time 7 day
[25] = system: Mus musculus; experiment: Cognitive enhancing effect in orally dosed C57BL mouse model of scopolamine-induced memory impairment assessed as escape latency administered for 7 days and measured after 30 mins at 4th day of training session by Morris water maze test; type: functional, organism-based; settings: dose 10-30 mg/kg, time 7.0 day
[26] = system: Mus musculus; experiment: Cognitive enhancing effect in C57BL mouse model of scopolamine-induced memory impairment assessed as time in target quadrant at 10 to 30 mg/kg, po administered for 7 days and measured after 30 mins at 5th day of training session by Morris water maze test; type: functional, organism-based; settings: dose 10-30 mg/kg, time 7.0 day
[27] = Effect on swimming speed in C57BL mouse model of scopolamine-induced memory impairment model at 10 to 30 mg/kg, po administered for 7 days; type: ADME, organism-based; settings: in vivo, 168 h, dose 10-30 mg/kg, time 7 day

| SMILES | Activity [2] [mM] | Activity [3] | inhibition [5] | IC50 [6] [nM] | Activity [7] [%] | permeability [8] | inhibition [9] | inhibition [10] | inhibition [11] | viability at 50 µM [12] [%] | inhibition [13] | inhibition [14] | Activity [15] [%] | Activity [17] | inhibition [18] | IC50 [19] [nM] | viability at 30 µM [20] [%] | also measured |
| --- | --- | --- | --- | --- | --- | --- | --- | --- | --- | --- | --- | --- | --- | --- | --- | --- | --- | --- |
| CC(=O)c1ccc(S(=O)(=O)Nc2ccc(-c3nc(-c4ccnc(Nc5ccc(OC(F)(F)F)cc5)c4)no3)cc2)cc1 | 3.28 | Non-Toxic | Active | 1020 | 68.6 | 1.31 10^-5 cm/s | Active | Active | Active | 98.1 | Dose-dependent effect | Dose-dependent effect | 57.1 | Dose-dependent effect | Dose-dependent effect | 470 | 99.1 | Ratio ([1]; mdck-ii, 2 h): 1.27; cytotoxicity at 24 h, 50 µM [4]: 20%; permeability ([16]; mdck-ii, 2 h): 1.66 10^-5 cm/s |
| CC(C)(C)c1ccc(S(=O)(=O)Nc2ccc(-c3nc(-c4ccnc(Nc5cccc(Cl)c5)c4)no3)cc2)cc1 | 3.43 | Non-Toxic | Active | 190 | 64.9 | 1.89 10^-5 cm/s | Active | Active | Active | 97.2 | Dose-dependent effect | Dose-dependent effect | 54.3 | Dose-dependent effect | Dose-dependent effect | 6940 | 99.2 | Activity [21]: Active; efflux ratio at 2 h ([1]; MDCK-MDR1): 1.02; Activity [22]: Active; Activity [23]: Non-Toxic; Papp B→A at 2 h ([16]; MDCK-MDR1, read-out: permeability): 19.3 ×10⁻⁶ cm/s; Activity [24]: Non-Toxic; Activity [25]: Dose-dependent effect; Activity [26]: Active; Activity [27]: Non-Toxic |
